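Step 1: Grow cells in 96-well plates. Step 2: Expose to compound for 48 hours at 5 concentrations. Step 3: Interpolate endpoints linearly; if unreached, use highest concentration. Abbreviation: GI50, concentration required for 50% inhibition of growth.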 The source made the active and inactive calls. Rule as the data show it: active = GI50 up to about 1.1 µM and inactive = higher.
What was measured:
Assay in all cases: NCI anticancer screen, dose series, 48 h
ACHN = system: ACHN
TK-10 = system: TK-10
HOP-62 = system: HOP-62
M14 = system: M14
786-0 = system: 786-0
MDA-N = system: MDA-N
SK-MEL-2 = system: SK-MEL-2
OVCAR-5 = system: OVCAR-5
HL-60 = system: HL-60
KM12 = system: KM12
UO-31 = system: UO-31
RPMI-8226 = system: RPMI-8226
SK-MEL-5 = system: SK-MEL-5
NCI-H226 = system: NCI-H226
SK-MEL-28 = system: SK-MEL-28
OVCAR-8 = system: OVCAR-8
DU-145 = system: DU-145
U-251 = system: U-251
SR = system: SR
OVCAR-3 = system: OVCAR-3

CNc1ccc(C(=O)CC(O)CCC(C)C2OC(=O)CC(O)CC(=O)CC(O)CC(O)CC(O)CC(O)CC3(O)CC(O)C(C(=O)N4CCOCC4)C(CC(OC4OC(C)C(O)C(N)C4O)\C=C/C=C\C=C/C=C/C=C/C=C\C=C/C2C)O3)cc1 (stereo not given)
GI50 (ACHN): 0.19 µM (active)
GI50 (TK-10): 0.247 µM (active)
GI50 (HOP-62): 0.351 µM (active)
GI50 (M14): 0.328 µM (active)
GI50 (786-0): 0.325 µM (active)
GI50 (MDA-N): 0.304 µM (active)
GI50 (SK-MEL-2): 0.421 µM (active)
GI50 (OVCAR-5): 0.607 µM (active)
GI50 (HL-60): 0.373 µM (active)
GI50 (KM12): 0.319 µM (active)
GI50 (UO-31): 0.195 µM (active)
GI50 (RPMI-8226): 0.259 µM (active)
GI50 (SK-MEL-5): 0.181 µM (active)
GI50 (NCI-H226): 0.277 µM (active)
GI50 (SK-MEL-28): 0.186 µM (active)
GI50 (OVCAR-8): 0.376 µM (active)
GI50 (DU-145): 0.527 µM (active)
GI50 (U-251): 0.243 µM (active)
GI50 (SR): 0.296 µM (active)
GI50 (OVCAR-3): 0.435 µM (active)

CC(C)C1OC(=O)C(Cc2ccccc2)N(C)C(=O)C(C(C)C)OC(=O)C(Cc2ccccc2)N(C)C(=O)C(C(C)C)OC(=O)C(Cc2ccccc2)N(C)C1=O (stereo not given)
GI50 (ACHN): 0.603 µM (active)
GI50 (TK-10): 0.757 µM (active)
GI50 (HOP-62): 0.838 µM (active)
GI50 (M14): 0.713 µM (active)
GI50 (786-0): 1.17 µM (inactive)
GI50 (MDA-N): 0.815 µM (active)
GI50 (SK-MEL-2): 0.628 µM (active)
GI50 (OVCAR-5): 1.03 µM (active)
GI50 (HL-60): 0.498 µM (active)
GI50 (KM12): 0.501 µM (active)
GI50 (UO-31): 0.307 µM (active)
GI50 (RPMI-8226): 0.489 µM (active)
GI50 (SK-MEL-5): 0.53 µM (active)
GI50 (NCI-H226): 1.36 µM (inactive)
GI50 (SK-MEL-28): 0.78 µM (active)
GI50 (OVCAR-8): 0.723 µM (active)
GI50 (DU-145): 1.62 µM (inactive)
GI50 (U-251): 0.661 µM (active)
GI50 (SR): 1.89 µM (inactive)
GI50 (OVCAR-3): 0.598 µM (active)

CCc1ccc(CCC(=O)O)nc1
GI50 (ACHN): > 100 µM (inactive)
GI50 (TK-10): > 100 µM (inactive)
GI50 (HOP-62): > 100 µM (inactive)
GI50 (M14): > 100 µM (inactive)
GI50 (786-0): > 100 µM (inactive)
GI50 (MDA-N): > 100 µM (inactive)
GI50 (SK-MEL-2): > 100 µM (inactive)
GI50 (OVCAR-5): > 100 µM (inactive)
GI50 (HL-60): > 100 µM (inactive)
GI50 (KM12): > 100 µM (inactive)
GI50 (UO-31): > 100 µM (inactive)
GI50 (RPMI-8226): > 100 µM (inactive)
GI50 (SK-MEL-5): > 100 µM (inactive)
GI50 (NCI-H226): > 100 µM (inactive)
GI50 (SK-MEL-28): > 100 µM (inactive)
GI50 (OVCAR-8): > 100 µM (inactive)
GI50 (DU-145): > 100 µM (inactive)
GI50 (U-251): > 100 µM (inactive)
GI50 (SR): > 100 µM (inactive)
GI50 (OVCAR-3): > 100 µM (inactive)

CN(C)CCOC1(CC2CCCCC2)CCC(C(C)(C)C)CC1 (stereo not given)
GI50 (ACHN): 7.57 µM (inactive)
GI50 (TK-10): 12.8 µM (inactive)
GI50 (HOP-62): 4.04 µM (inactive)
GI50 (M14): 2.14 µM (inactive)
GI50 (786-0): 2.48 µM (inactive)
GI50 (MDA-N): 4.25 µM (inactive)
GI50 (SK-MEL-2): 6.44 µM (inactive)
GI50 (OVCAR-5): 5.53 µM (inactive)
GI50 (HL-60): 2.54 µM (inactive)
GI50 (KM12): 4.27 µM (inactive)
GI50 (UO-31): 2.69 µM (inactive)
GI50 (RPMI-8226): 2.02 µM (inactive)
GI50 (SK-MEL-5): 2.3 µM (inactive)
GI50 (NCI-H226): 6.84 µM (inactive)
GI50 (SK-MEL-28): 4.68 µM (inactive)
GI50 (OVCAR-8): 6.82 µM (inactive)
GI50 (DU-145): 7.01 µM (inactive)
GI50 (U-251): 4.74 µM (inactive)
GI50 (SR): 1.69 µM (inactive)
GI50 (OVCAR-3): 7.53 µM (inactive)

COc1ccc(-c2nc3cc(C(F)(F)F)ccc3n2CC2CCCN3CCCCC23)cc1 (stereo not given)
GI50 (ACHN): 15.6 µM (inactive)
GI50 (TK-10): 16.6 µM (inactive)
GI50 (HOP-62): 18.7 µM (inactive)
GI50 (M14): 13 µM (inactive)
GI50 (786-0): 19.5 µM (inactive)
GI50 (MDA-N): 19.3 µM (inactive)
GI50 (SK-MEL-2): 15.5 µM (inactive)
GI50 (OVCAR-5): 27.1 µM (inactive)
GI50 (HL-60): 14.3 µM (inactive)
GI50 (KM12): 19.4 µM (inactive)
GI50 (UO-31): 17.1 µM (inactive)
GI50 (RPMI-8226): 14.2 µM (inactive)
GI50 (SK-MEL-5): 14.4 µM (inactive)
GI50 (NCI-H226): 16.5 µM (inactive)
GI50 (SK-MEL-28): 14.9 µM (inactive)
GI50 (OVCAR-8): 17.1 µM (inactive)
GI50 (DU-145): 17.1 µM (inactive)
GI50 (U-251): 17 µM (inactive)
GI50 (SR): 13.3 µM (inactive)
GI50 (OVCAR-3): 16.1 µM (inactive)

Cc1ccc2c(c1C)-c1c(ccc(C)c1C)C(=O)C2=O
GI50 (ACHN): 0.625 µM (active)
GI50 (TK-10): 1.18 µM (inactive)
GI50 (HOP-62): 1.39 µM (inactive)
GI50 (M14): 0.679 µM (active)
GI50 (786-0): 0.358 µM (active)
GI50 (MDA-N): 0.173 µM (active)
GI50 (SK-MEL-2): 1.19 µM (inactive)
GI50 (OVCAR-5): 1.55 µM (inactive)
GI50 (HL-60): 0.219 µM (active)
GI50 (KM12): 0.165 µM (active)
GI50 (UO-31): 0.625 µM (active)
GI50 (RPMI-8226): 0.193 µM (active)
GI50 (SK-MEL-5): 0.367 µM (active)
GI50 (NCI-H226): 1.66 µM (inactive)
GI50 (SK-MEL-28): 0.92 µM (active)
GI50 (OVCAR-8): 0.253 µM (active)
GI50 (DU-145): 1.14 µM (inactive)
GI50 (U-251): 0.432 µM (active)
GI50 (SR): 0.107 µM (active)
GI50 (OVCAR-3): 0.296 µM (active)

C/C=C(\C)C(=O)OC1CC(OC(C)=O)C2(C(=O)OC)COC3C2C1(C)C1C2(C(=O)OC)OCC1(C3O)C1(O)C3CC(C4(O)C=COC4O3)C1(C)O2 (stereo not given)
GI50 (ACHN): > 100 µM (inactive)
GI50 (TK-10): > 100 µM (inactive)
GI50 (HOP-62): > 100 µM (inactive)
GI50 (M14): > 100 µM (inactive)
GI50 (786-0): > 100 µM (inactive)
GI50 (MDA-N): 34.4 µM (inactive)
GI50 (SK-MEL-2): > 100 µM (inactive)
GI50 (OVCAR-5): > 100 µM (inactive)
GI50 (HL-60): 92 µM (inactive)
GI50 (KM12): > 100 µM (inactive)
GI50 (UO-31): > 100 µM (inactive)
GI50 (RPMI-8226): > 100 µM (inactive)
GI50 (SK-MEL-5): > 100 µM (inactive)
GI50 (NCI-H226): > 100 µM (inactive)
GI50 (SK-MEL-28): > 100 µM (inactive)
GI50 (OVCAR-8): > 100 µM (inactive)
GI50 (DU-145): > 100 µM (inactive)
GI50 (U-251): > 100 µM (inactive)
GI50 (SR): > 100 µM (inactive)
GI50 (OVCAR-3): > 100 µM (inactive)

COc1ccc(NC(C)=O)cc1N1C(=O)/C(=C\c2cc(OC)c(OC)c(OC)c2)SC1c1ccccc1 (stereo not given)
GI50 (ACHN): 44.4 µM (inactive)
GI50 (TK-10): > 100 µM (inactive)
GI50 (HOP-62): 63.7 µM (inactive)
GI50 (M14): 49.8 µM (inactive)
GI50 (786-0): 54 µM (inactive)
GI50 (MDA-N): 25.5 µM (inactive)
GI50 (SK-MEL-2): 57.9 µM (inactive)
GI50 (OVCAR-5): > 100 µM (inactive)
GI50 (HL-60): 20.4 µM (inactive)
GI50 (KM12): 40.6 µM (inactive)
GI50 (UO-31): 22.1 µM (inactive)
GI50 (RPMI-8226): 17.4 µM (inactive)
GI50 (SK-MEL-5): 33.7 µM (inactive)
GI50 (NCI-H226): 50.9 µM (inactive)
GI50 (SK-MEL-28): 41.9 µM (inactive)
GI50 (OVCAR-8): 48.1 µM (inactive)
GI50 (DU-145): 91.4 µM (inactive)
GI50 (U-251): 34.7 µM (inactive)
GI50 (SR): 27.8 µM (inactive)
GI50 (OVCAR-3): 36.1 µM (inactive)

COC(=O)c1ccc(O)c2nc3c(C=O)c(O)cc(O)c3nc12 [LOMOFUNGIN]
GI50 (ACHN): 0.32 µM (active)
GI50 (TK-10): 1.62 µM (inactive)
GI50 (HOP-62): 1.36 µM (inactive)
GI50 (M14): 0.592 µM (active)
GI50 (786-0): 1.73 µM (inactive)
GI50 (MDA-N): 1.67 µM (inactive)
GI50 (SK-MEL-2): 2.9 µM (inactive)
GI50 (OVCAR-5): 0.822 µM (active)
GI50 (HL-60): 0.293 µM (active)
GI50 (KM12): 1.3 µM (inactive)
GI50 (UO-31): 0.225 µM (active)
GI50 (RPMI-8226): 0.811 µM (active)
GI50 (SK-MEL-5): 0.953 µM (active)
GI50 (NCI-H226): 0.542 µM (active)
GI50 (SK-MEL-28): 1.93 µM (inactive)
GI50 (OVCAR-8): 0.0439 µM (active)
GI50 (DU-145): 0.685 µM (active)
GI50 (U-251): 0.025 µM (active)
GI50 (SR): 10.6 µM (inactive)
GI50 (OVCAR-3): 4.65 µM (inactive)

CCOC(=O)N1N=C(/C(C)=N/OC)C(C)[S+]1[O-] (stereo not given)
GI50 (ACHN): > 100 µM (inactive)
GI50 (TK-10): > 100 µM (inactive)
GI50 (HOP-62): > 100 µM (inactive)
GI50 (M14): > 100 µM (inactive)
GI50 (786-0): > 100 µM (inactive)
GI50 (MDA-N): > 100 µM (inactive)
GI50 (SK-MEL-2): > 100 µM (inactive)
GI50 (OVCAR-5): > 100 µM (inactive)
GI50 (HL-60): > 100 µM (inactive)
GI50 (KM12): > 100 µM (inactive)
GI50 (UO-31): > 100 µM (inactive)
GI50 (RPMI-8226): > 100 µM (inactive)
GI50 (SK-MEL-5): > 100 µM (inactive)
GI50 (NCI-H226): > 100 µM (inactive)
GI50 (SK-MEL-28): > 100 µM (inactive)
GI50 (OVCAR-8): > 100 µM (inactive)
GI50 (DU-145): > 100 µM (inactive)
GI50 (U-251): > 100 µM (inactive)
GI50 (SR): > 100 µM (inactive)
GI50 (OVCAR-3): > 100 µM (inactive)
